# Reference: US20040158036A1, “Neuritogenic compound and uses thereof” (priority 2004, published 2004)
# “Also recorded” adds a separate entry of the source. Like-named read-outs stand apart in the source and are kept apart here. Ends that are not written are not given here.
# Tests used:
# explanted DRG [1] = experiment: Neurite outgrowth from explanted DRG cultures (Example 3); format: cell-based, C57/B16 mice; conditions: for neurite outgrowth relative to non-treated cultures / INGAP peptide-stimulated neurite outgrowth after preincubation with anti-NGF antibody: INGAP peptide 1000 ng/mL; for neurite outgrowth relative to non-treated cultures: NGF 50 ng/mL, 17-β-estradiol 10 nM, 4 and 7 days; for overall length and density of neurite outgrowth vs non-treated DRG: 4 days in culture; for neurite outgrowth in combination with 17-β-estradiol vs either drug alone: INGAP peptide 1000 ng/mL + 17-β-estradiol 10 nM; for neurite outgrowth in combination with NGF vs INGAP peptide alone: INGAP peptide 1000 ng/mL + NGF 50 ng/mL; for INGAP peptide-stimulated neurite outgrowth after preincubation with anti-NGF antibody: cultures pre-incubated with anti-NGF antibody
# Description: (§1) DRG (L3, L4, L5) were dissected from wild-type C57/B16 mice <, and DRG explants were cultured in […] of Matrigel at 37° C. (5% CO2) for 24 h in phenol-red free RPMI 1640 media-free supplemented with 1% penicillin/streptomycin. Neurite outgrowth was followed for 7 days and was visualized with an OLYMPUS™ BX51 system microscope equipped with a Dage-MTI CCD300-RC camera coupled to a Powermate™ 8100 Pentium™III computer (NEC Corp.) with 128 MB RAM. Bright-field microscope images were stored in uncompressed tagged image file format (TIFF) at a resolution of 600 d.p.i. and analyzed using MCID-M5+5.1 image analysis software (Imaging Research Inc.) and SYSTAT 9 statistical software (SPSS Inc.).
# (§2) In all experiments, statistical significance was determined using one-way ANOVA and post-hoc Dunnett's test. The experimental group size was n=4-5, and differences were considered significant where P<0.05.
# [2] = test system: dorsal route ganglia (DRG) explant cultures; experiment: Neurite outgrowth in DRG explant cultures (Example 1); format: cell-based, male C57BL/6 mice; conditions: DRG explants
# Description: Using male C57BL/6 mice, dorsal route ganglia (DRG) explant cultures were established to examine the effect of the INGAP peptide of the present invention on neurite outgrowth (FIG. 1). DRG (L3, L4) were dissected from male C57BL/6 mice, and DRG explants were cultured in 14 uL of Matrigel in 2 ml of RPMI 1640 media+1% antibiotic.
# DRG explant cultures = experiment: MTT assay of DRG cell viability (Example 2); format: cell-based, Balb/C mice
# Description: Using DRG explant cultures, we examined the effects of the INGAP peptide of the present invention, as well as other agents, on DRG cell viability using the MTT assay (FIG. 2). DRG (L3, L4) were dissected from Balb/C mice, and DRG explants were cultured in 14 uL of Matrigel in 2 ml of RPMI 1640 media+1% antibiotic. After 48 hours, INGAP, β-estradiol, and/or FK506 were added to the explant cultures as indicated. MTT assay was performed 7 days after the addition of drugs. Data were analyzed using one-way ANOVA with post-hoc Tuckey” test. Differences were consider significant where p<0.05. (n=3-4 per treatment group).
# explanted DRG [3] = experiment: MTT assay, mitochondrial activity in explanted DRG (Example 3); format: cell-based, C57/B16 mice
# Description: as §1
# For cell viability assays, MTT was dissolved in phosphate buffered saline (1.9 mM NaH2PO4, 8.1 mM Na2HPO4, 154 mM NaCl) and applied to DRG explant cultures at a concentration of 1.2 mM for 2 h at (37° C., 5% CO2). Media were then aspirated, and each DRG explant was incubated in […] of DMSO for 1 h. […] of DMSO from each explant was transferred to a 96-well plate and absorbance at 595 nm was read on a Bio-Rad Benchmark plate reader.
# as §2
# DRG explants = experiment: [3H]thymidine incorporation in DRG explants (Example 3); format: cell-based, C57/B16 mice; conditions: 4 days in culture; for [3H] thymidine incorporation relative to non-treated controls: 100 ng/mL
# Description: as §1
# For [3H]thymidine incorporation assays, serum-starved DRG ex-plants cultured in Matrigel were exposed to Ingap (100-1000 ng/mL) for 48 h. 1 p Ci/ml of [3H]thymidine was added to each DRG and kept for an additional 48 h, after which time the DRG were washed four times with ice-cold trichloroacetic acid (10%). Ganglia were lysed on ice in 100pL of tissue solubilizer (NCS-II, Amersham). Lysates were transferred to individual 4 mL scintillation counting vials, and 4 mL of liquid scintillation counting cocktail (Fischer SX25-5 ScintiSafe Plus 50%) was added to each lysate. Counting was performed on a Wallac 1410 liquid scintillation counter.
# as §2
# [4] = test system: cells associated with the ductal epithelium; conditions: normal, adult mouse; cited from earlier work
# [5] = test system: cells associated with the ductal epithelium; conditions: normal, adult hamster; cited from earlier work
compound,measurement,setting,value
"C[C@]12CC[C@@H]3c4ccc(O)cc4CC[C@H]3[C@@H]1CC[C@@H]2O [17-β-estradiol, reference compound]",neurite outgrowth relative to non-treated cultures,explanted DRG [1],strong neurite outgrowth
GLHDPSHGTLPNGSG [15-amino-acid fragment (amino acids 104-118) of Islet Neogenesis Associated Protein],neurite-promoting effect compared with nerve growth factor (NGF),[2],comparable
same,neurite-promoting effect,[2]; FIG. 1,"effective, in a dose-dependent fashion, as a neurite-promoting agent"
same,MTT reduction (cell viability),"DRG explant cultures; doses 100 ng/mL to 1,500 ng/mL, MTT 7 days after addition of drugs",tremendous increase in MTT reduction
same,dose of maximal effect on MTT reduction,"DRG explant cultures; no significant change with 1000 or 1,500 ng/mL",500 ng/mL
same,neurite outgrowth vs non-treated DRG,"explanted DRG [1]; 100 ng/mL, any time point examined",No effects
same,neurite outgrowth vs non-treated DRG,"explanted DRG [1]; 100 ng/mL, any time point examined, listed as INGAP",did not have a significant effect
same,overall length and density of neurite outgrowth vs non-treated DRG,"explanted DRG [1]; 500 ng/mL, listed as INGAP",significant enhancement
same,overall length and density of neurite outgrowth vs non-treated DRG,explanted DRG [1]; 500 ng/mL,Significant effects
same,neurite outgrowth vs non-treated DRG,"explanted DRG [1]; 1000 ng/mL, 7 days in culture",continued to significantly enhance neurite outgrowth
same,overall length and density of neurite outgrowth vs non-treated DRG,explanted DRG [1]; 1000 ng/mL,Significant effects
same,overall length and density of neurite outgrowth vs non-treated DRG,"explanted DRG [1]; 1000 ng/mL, listed as INGAP",significant enhancement
same,neurite outgrowth vs non-treated DRG,"explanted DRG [1]; 24 h, regardless of the drug concentration",no significant differences
same,optimal dose for neurite outgrowth,explanted DRG [1]; DRG explants,1000 ng/mL
same,neurite outgrowth in combination with 17-β-estradiol vs either drug alone,explanted DRG [1],No significant enhancement
same,neurite outgrowth in combination with 17-β-estradiol vs either drug alone,explanted DRG [1]; listed as INGAP,not significantly different
same,neurite outgrowth in combination with NGF vs INGAP peptide alone,explanted DRG [1],enhances neurite outgrowth
same,neurite outgrowth in combination with NGF vs INGAP peptide alone,explanted DRG [1]; listed as INGAP,Enhanced effects on neurite outgrowth
same,neurite outgrowth relative to non-treated cultures,explanted DRG [1],"strong neurite outgrowth; also recorded: stimulates neurite outgrowth from the DRG explants, to an extent similar to that of the prototypical growth factor"
same,neurite outgrowth relative to non-treated cultures,explanted DRG [1]; listed as INGAP,stimulates neurite outgrowth to an extent similar to that of NGF
same,INGAP peptide-stimulated neurite outgrowth after preincubation with anti-NGF antibody,explanted DRG [1],marked reduction
same,INGAP peptide-stimulated neurite outgrowth after preincubation with anti-NGF antibody,explanted DRG [1]; listed as INGAP,strong reduction
same,mitochondrial activity (MTT reduction) vs non-treated controls,"explanted DRG [3]; 1000 ng/mL, 4 days in culture",significant increase in mitochondrial activity
same,mitochondrial activity (MTT reduction) vs non-treated controls,"explanted DRG [3]; 1000 ng/mL, 4 days in culture, listed as INGAP",significantly larger MTT reduction
same,mitochondrial activity (MTT reduction) vs non-treated controls,"explanted DRG [3]; 100, 500, 1000 ng/mL, 24 h in culture",no significant effects
same,mitochondrial activity (MTT reduction) vs non-treated controls,"explanted DRG [3]; 100, 500, 1000 ng/mL, 24 h in culture, listed as INGAP",no significant effect
same,mitochondrial activity (MTT reduction) vs non-treated controls,"explanted DRG [3]; 500 and 1000 ng/mL, 7 days in culture, P>0.05",trend toward enhanced cell viability
same,[3H] thymidine incorporation relative to non-treated controls,DRG explants,no significant effects
same,[3H] thymidine incorporation relative to non-treated controls,DRG explants; listed as INGAP,no significant effect
same,increase in [3H] thymidine incorporation relative to non-treated controls,DRG explants; 500 ng/mL,3 fold
same,"islet-cell neogenesis, new islet formation",[4],potent inducer of islet-cell neogenesis
same,"islet-cell neogenesis, new islet formation",[5],potent inducer of islet-cell neogenesis
"NGF: conventional neurotrophic agent, nerve growth factor [reference compound]",neurite outgrowth relative to non-treated cultures,explanted DRG [1],strong neurite outgrowth
